Reference: patent publication US9795567B2, “Immediate release formulations and dosage forms of gamma-hydroxybutyrate” (Jazz Pharmaceuticals, Inc., priority 2008, dated 2017)

What was measured:
[1] = test system: patients with hyperkinetic movement disorders including ethanol responsive myoclonus and essential tremor; details: five patients, open label; cited from earlier work
[2] = in man, given orally; cited from earlier work
[3] = Plasma pharmacokinetics of sodium oxybate given orally (background and definition statements); details: human, oral

Compound: O=C(O)CCCO [sodium oxybate, Sodium gamma-hydroxybutyrate]
- blinded ratings of ethanol responsive myoclonus and tremor [1]: dose-dependent improvements
- tolerability [1]: tolerated at doses that provided clinical benefit
- plasma half-life [2]: about 45 minutes
- Tmax [3]: 30 to 150 min
- half-life [3]: 24 to 54 min
